ChEMBL document CHEMBL1134676, “Synthesis and activity of novel and selective I(Ks)-channel blockers” (J Med Chem, 2001)

Tests used:
[1] = biological target: T1, Voltage-gated potassium channel, IKs; KCNQ1(Kv7.1)/KCNE1(MinK) (Homo sapiens, UniProt P15382+P51787); experiment: Inhibition of human IKs-channel expressed in Xenopus oocytes; format: cell-based, Oocyte
[2] = biological target: T1, Voltage-gated potassium channel, IKs; KCNQ1(Kv7.1)/KCNE1(MinK); experiment: Inhibition of human IKs-channel expressed in Xenopus oocytes,(Experiment 1); format: cell-based, Oocyte

T1 sequence (P51787 whole entry): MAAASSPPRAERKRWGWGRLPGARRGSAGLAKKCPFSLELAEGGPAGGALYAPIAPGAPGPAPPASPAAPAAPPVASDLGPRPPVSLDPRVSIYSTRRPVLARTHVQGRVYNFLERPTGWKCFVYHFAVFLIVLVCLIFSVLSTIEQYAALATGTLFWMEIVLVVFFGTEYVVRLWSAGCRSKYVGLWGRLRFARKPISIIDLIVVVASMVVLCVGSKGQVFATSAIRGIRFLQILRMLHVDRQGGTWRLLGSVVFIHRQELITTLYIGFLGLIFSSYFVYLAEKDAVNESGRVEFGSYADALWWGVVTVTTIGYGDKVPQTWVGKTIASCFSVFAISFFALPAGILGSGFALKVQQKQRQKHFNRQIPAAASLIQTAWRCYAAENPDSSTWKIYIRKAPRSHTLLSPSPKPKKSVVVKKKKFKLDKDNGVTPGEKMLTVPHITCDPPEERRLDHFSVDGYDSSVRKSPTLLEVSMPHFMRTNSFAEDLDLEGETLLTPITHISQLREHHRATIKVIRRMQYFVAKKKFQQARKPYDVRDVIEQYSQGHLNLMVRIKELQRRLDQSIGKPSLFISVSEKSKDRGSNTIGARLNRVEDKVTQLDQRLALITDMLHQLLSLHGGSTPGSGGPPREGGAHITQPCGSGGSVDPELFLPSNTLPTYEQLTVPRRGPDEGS

| IC50 [1] | IC50 [2] | SMILES |
| --- | --- | --- |
| 2200 nM |  | CCS(=O)(=O)N(C)[C@@H]1c2cc(F)ccc2OC(C)(C)[C@H]1O |
| 1200 nM |  | CCS(=O)(=O)N(C)C1c2cc(F)ccc2OC(C)(C)C1O (configuration not stated) |
| 58000 nM |  | CCCCS(=O)(=O)N(C)C1c2cc(C#N)ccc2OC(C)(C)C1O (configuration not stated) |
| 6900 nM |  | CCS(=O)(=O)N(C)C1c2cc(C#N)ccc2OC(C)(C)C1O (configuration not stated) |
|  | 5 µM | CCS(=O)(=O)N(C)[C@H]1c2cc(C#N)ccc2OC(C)(C)[C@@H]1O |

Continued, compound first:

| SMILES | IC50 [1] | IC50 [2] |
| --- | --- | --- |
| CN(C1c2cc(OCc3ccccc3)ccc2OC(C)(C)C1O)S(C)(=O)=O (configuration not stated) | 200 nM |  |
| CCS(=O)(=O)N(C)[C@H]1c2cc(OCc3ccccc3)ccc2OC(C)(C)[C@@H]1O | 50 nM |  |
| CCS(=O)(=O)N(C)C1c2ccccc2OC(C)(C)C1O (configuration not stated) | 3100 nM |  |
| CCCCOc1ccc2c(c1)C(N(C)S(C)(=O)=O)C(O)C(C)(C)O2 (configuration not stated) | 250 nM |  |
| CCS(=O)(=O)N(C)[C@@H]1c2cc(OCc3ccccc3)ccc2OC(C)(C)[C@H]1O | 400 nM |  |
| CN(C1c2cc(Cl)ccc2OC(C)(C)C1O)S(C)(=O)=O (configuration not stated) | 1100 nM |  |
| CCS(=O)(=O)N(C)[C@@H]1c2cc(C#N)ccc2OC(C)(C)[C@H]1O |  | 44.5 µM |
